According to ChEMBL document CHEMBL4417631, “Oral peptide inhibitors of interleukin-23 receptor and their use to treat inflammatory bowel diseases” (2017):
pIC50: −log10 of the molar value. Where a SMILES comes first, the peptide text is derived from it. [ ]: non-standard residue; d: D form. hLeu = CC(C)CC[C@H](N)C(=O)O

biological target: T1, Interleukin-23 receptor (Homo sapiens, UniProt Q5VWK5); experiment: Inhibition of interleukin-23 binding to human interleukin-23 receptor incubated for 2 hrs by competitive binding ELISA
T1 sequence (Q5VWK5 whole entry): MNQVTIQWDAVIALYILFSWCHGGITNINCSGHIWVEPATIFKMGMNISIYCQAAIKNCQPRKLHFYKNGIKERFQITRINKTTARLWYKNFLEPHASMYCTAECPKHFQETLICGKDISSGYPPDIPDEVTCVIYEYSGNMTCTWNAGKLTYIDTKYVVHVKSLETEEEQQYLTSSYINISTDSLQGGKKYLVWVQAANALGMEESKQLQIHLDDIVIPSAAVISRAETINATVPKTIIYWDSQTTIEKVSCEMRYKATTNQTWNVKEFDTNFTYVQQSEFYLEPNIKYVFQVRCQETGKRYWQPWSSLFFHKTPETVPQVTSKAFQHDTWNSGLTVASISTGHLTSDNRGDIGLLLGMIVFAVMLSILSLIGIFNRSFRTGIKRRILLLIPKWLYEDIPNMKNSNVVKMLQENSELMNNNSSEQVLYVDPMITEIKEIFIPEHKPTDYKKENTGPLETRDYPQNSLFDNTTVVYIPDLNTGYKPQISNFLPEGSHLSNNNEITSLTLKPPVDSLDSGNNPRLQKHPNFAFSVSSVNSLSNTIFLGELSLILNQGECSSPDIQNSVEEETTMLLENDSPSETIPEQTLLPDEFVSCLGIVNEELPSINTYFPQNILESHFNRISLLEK

Point of comparison: `CC(=O)N[C@@H](CS)C(=O)N[C@@H](CCC(N)=O)C(=O)N[C@H](C(=O)N[C@@H](Cc1c[nH]c2ccccc12)C(=O)N[C@@H](CCC(N)=O)C(=O)N[C@@H](CS)C(=O)N[C@@H](CC1CCCCC1)C(=O)N[C@@H](Cc1c[nH]c2ccccc12)C(=O)N[C@@H](CCC(C)C)C(=O)N[C@@H](CCC(=O)O)C(=O)N[C@@H](CC(N)=O)C(=O)NCC(N)=O)[C@@H](C)O`, pIC50 5.22. Against it:
- CC(=O)N[C@@H](CS)C(=O)N[C@@H](C)C(=O)N[C@@H](CC(=O)O)C(=O)N[C@@H](Cc1c[nH]c2ccccc12)C(=O)N[C@H](C(=O)N[C@@H](CS)C(N)=O)C(C)C (Ac-CADWVC-NH2) — not separable, < 6.00
- CC(=O)N[C@@H](CS)C(=O)N[C@@H](CCC(N)=O)C(=O)N[C@H](C(=O)N[C@@H](Cc1c[nH]c2ccccc12)C(=O)N[C@@H](CCC(N)=O)C(=O)N[C@@H](CS)C(=O)N[C@@H](Cc1ccc(O)cc1)C(=O)N[C@@H](Cc1c[nH]c2ccccc12)C(=O)N[C@@H](CCCNC(=N)N)C(=O)N(C)CC(=O)N[C@@H](CC(N)=O)C(=O)NCC(=O)NCCOCC(=O)N[C@H](CCCCN)C(N)=O)[C@@H](C)O — not separable, < 6.00
- CC(=O)N[C@@H](CS)C(=O)N[C@@H](C)C(=O)N[C@@H](CC(=O)O)C(=O)N[C@@H](Cc1c[nH]c2ccccc12)C(=O)N[C@H](C(=O)N[C@@H](CS)C(=O)N[C@@H](Cc1ccc(O)cc1)C(=O)N[C@@H](Cc1c[nH]c2ccccc12)C(=O)N[C@@H](Cc1cnc[nH]1)C(=O)N[C@@H](CCC(=O)O)C(=O)N[C@@H](Cc1cnc[nH]1)C(=O)N[C@@H](CO)C(=O)N[C@@H](CCC(=O)O)C(=O)N[C@@H](CCCNC(=N)N)C(=O)N[C@H](C(=O)NCC(N)=O)C(C)C)C(C)C (Ac-CADWVCYWHEHSERVG-NH2) — higher, 6.00 to 6.30
- CC(C)[C@H](NC(=O)[C@H](Cc1c[nH]c2ccccc12)NC(=O)[C@H](CC(=O)O)NC(=O)[C@H](C)NC(=O)[C@@H](N)CS)C(=O)N[C@@H](CS)C(=O)N[C@@H](Cc1ccc(O)cc1)C(=O)N[C@@H](Cc1cccc2ccccc12)C(=O)N[C@@H](Cc1cnc[nH]1)C(=O)N[C@H](C(=O)N[C@@H](Cc1ccccc1)C(=O)O)[C@@H](C)O — not separable, < 6.00
- CC(C)[C@H](NC(=O)[C@H](Cc1c[nH]c2ccccc12)NC(=O)[C@H](CC(=O)O)NC(=O)CN(C)C(=O)[C@@H](N)CS)C(=O)N[C@@H](CS)C(=O)N[C@@H](Cc1ccc(O)cc1)C(=O)N[C@@H](Cc1cccc2ccccc12)C(=O)N[C@@H](Cc1cnc[nH]1)C(=O)N[C@H](C(=O)N[C@@H](Cc1ccccc1)C(=O)O)[C@@H](C)O — not separable, < 6.00
- COc1ccc(C[C@H](NC(=O)[C@@H](NC(=O)[C@H](CCC(N)=O)NC(=O)[C@H](Cc2c[nH]c3ccccc23)NC(=O)[C@@H](NC(=O)[C@H](CCC(N)=O)NC(=O)[C@@H](NC(=O)c2cc(O)c(O)c(O)c2)C(C)(C)S)[C@@H](C)O)C(C)(C)S)C(=O)N[C@@H](Cc2ccc3ccccc3c2)C(=O)N[C@@](C)(CCCCN)C(=O)N[C@@H](CCCCNC(C)=O)C(=O)N[C@@H](CC(N)=O)C(=O)NCC(N)=O)cc1 — not separable, 5.00 to 6.00
- CC(=O)N[C@@H](CS)C(=O)N[C@@H](CCC(N)=O)C(=O)N[C@H](C(=O)N[C@@H](CC(N)=O)C(=O)N[C@@H](CCC(N)=O)C(=O)N[C@@H](CS)C(=O)N[C@@H](Cc1ccc(O)cc1)C(=O)N[C@@H](Cc1c[nH]c2ccccc12)C(=O)N[C@@H](CCC(C)C)C(=O)N[C@@H](CCC(=O)O)C(=O)N[C@@H](CC(N)=O)C(=O)NCC(N)=O)[C@@H](C)O (Ac-CQTNQCYW[hLeu]ENG-NH2) — lower, < 5.00
- CC(=O)NCCCC[C@H](NC(=O)[C@](C)(CCCCN)NC(=O)[C@H](Cc1ccc2ccccc2c1)NC(=O)[C@H](Cc1ccc(-c2ccccc2)cc1)NC(=O)[C@@H](NC(=O)[C@H](CCC(N)=O)NC(=O)[C@H](Cc1c[nH]c2ccccc12)NC(=O)[C@@H](NC(=O)[C@H](CCC(N)=O)NC(=O)[C@@H](NC(C)=O)C(C)(C)S)[C@@H](C)O)C(C)(C)S)C(=O)N[C@@H](CC(N)=O)C(=O)NCC(N)=O — lower, < 5.00
- CC(=O)N[C@@H](CS)C(=O)N[C@@H](CCC(N)=O)C(=O)N[C@H](C(=O)N[C@@H](Cc1c[nH]c2ccccc12)C(=O)N[C@@H](CCC(N)=O)C(=O)N[C@@H](CS)C(N)=O)[C@@H](C)O (Ac-CQTWQC-NH2) — lower, < 4.52
- CC(C)[C@H](NC(=O)[C@H](Cc1c[nH]c2ccccc12)NC(=O)[C@H](CC(=O)O)NC(=O)[C@H](C)NC(=O)[C@@H](N)CS)C(=O)N[C@@H](CS)C(=O)N[C@@H](Cc1ccc(O)cc1)C(=O)N[C@@H](Cc1cccc2ccccc12)C(=O)N[C@@H](Cc1cnc[nH]1)C(=O)N[C@H](C(=O)N[C@@H](Cc1ccccc1)C(=O)N(C)CC(=O)O)[C@@H](C)O — not separable, < 6.00
- CC(=O)N[C@@H](CS)C(=O)N[C@H](C(=O)N[C@H](C(=O)N[C@@H](Cc1c[nH]c2ccccc12)C(=O)N[C@H](C(=O)N[C@@H](CS)C(=O)N[C@@H](Cc1ccc(O)cc1)C(=O)N[C@@H](Cc1c[nH]c2ccccc12)C(=O)N[C@@H](Cc1cnc[nH]1)C(=O)N[C@@H](CCC(N)=O)C(=O)N[C@@H](Cc1ccc(O)cc1)C(=O)NCC(N)=O)[C@@H](C)O)[C@@H](C)O)[C@@H](C)O (Ac-CTTWTCYWHQYG-NH2) — higher, > 6.30
- CC(C)[C@H](NC(=O)[C@H](Cc1cnc[nH]1)NC(=O)[C@H](Cc1c[nH]c2ccccc12)NC(=O)[C@H](Cc1ccc(O)cc1)NC(=O)[C@H](CS)NC(=O)[C@@H](NC(=O)[C@H](Cc1c[nH]c2ccccc12)NC(=O)[C@@H](NC(=O)[C@H](CCCNC(=N)N)NC(=O)[C@@H](N)CS)[C@@H](C)O)C(C)C)C(=O)N[C@@H](Cc1ccccc1)C(=O)NCC(N)=O (H-CRTWVCYWHVFG-NH2) — not separable, < 6.00
- CC(=O)N[C@@H](CS)C(=O)N[C@@H](C)C(=O)N[C@@H](CC(=O)O)C(=O)N[C@@H](Cc1c[nH]c2ccccc12)C(=O)N[C@H](C(=O)N[C@@H](CS)C(=O)N[C@@H](Cc1ccc(O)cc1)C(=O)N[C@@H](Cc1c[nH]c2ccccc12)C(=O)N[C@@H](Cc1cnc[nH]1)C(=O)N[C@H](C(=O)N[C@@H](CCCCN)C(=O)NCC(=O)O)[C@@H](C)O)C(C)C — not separable, < 6.00
- CC(=O)N[C@@H](CS)C(=O)N[C@@H](C)C(=O)N[C@@H](CC(=O)O)C(=O)N[C@@H](Cc1c[nH]c2ccccc12)C(=O)N[C@H](C(=O)N[C@@H](CS)C(=O)N[C@@H](Cc1ccc(O)cc1)C(=O)N[C@@H](Cc1c[nH]c2ccccc12)C(=O)N[C@@H](Cc1cnc[nH]1)C(=O)N[C@H](C(=O)N[C@@H](Cc1ccccc1)C(=O)NCC(=O)N[C@@H](C)C(=O)N1CC[C@H]1C(=O)N[C@H](CCCCN)C(=O)O)[C@@H](C)O)C(C)C — higher, 6.00 to 7.00
- CC(C)[C@H](NC(=O)[C@H](Cc1cnc[nH]1)NC(=O)[C@H](Cc1c[nH]c2ccccc12)NC(=O)[C@H](Cc1ccc(O)cc1)NC(=O)[C@H](CS)NC(=O)[C@@H](NC(=O)[C@H](Cc1c[nH]c2ccccc12)NC(=O)[C@H](CC(=O)O)NC(=O)[C@H](CO)NC(=O)[C@@H](N)CS)C(C)C)C(=O)N[C@@H](Cc1ccc(O)cc1)C(=O)NCC(N)=O (H-CSDWVCYWHVYG-NH2) — higher, 6.00 to 6.30
- CC(=O)N[C@@H](CS)C(=O)N[C@@H](CCCNC(=N)N)C(=O)N[C@H](C(=O)N[C@@H](Cc1c[nH]c2ccccc12)C(=O)N[C@@H](CCC(=O)O)C(=O)N[C@@H](CS)C(=O)N[C@@H](Cc1ccc(O)cc1)C(=O)N[C@@H](Cc1c[nH]c2ccccc12)C(=O)N[C@@H](Cc1cnc[nH]1)C(=O)N[C@@H](CCC(=O)O)C(=O)N[C@@H](Cc1ccc(O)cc1)C(=O)NCC(N)=O)[C@@H](C)O (Ac-CRTWECYWHEYG-NH2) — higher, > 6.30
